Data set [1] is described as follows: Single dose pharmacokinetics (PK) study in male Wister-Han rats. The format is in vivo, rat. The method, then:
Pharmacokinetic properties of selected compounds were assessed by single dose PK studies in Male Wister-Han Rats (vendor: Beijing Vital River Laboratory Animal Technology Co., Ltd). Briefly, two groups of animals were administered a single dose of respective compound intravenously (IV, bolus) at 2 mg/kg or orally (PO, by gavage) at 10 mg/kg. Blood samples (approximately 150 μL) were collected via Jugular vein at 5 min (only for IV), 15 min, 30 min, 1 h, 2 h, 4 h, 7 h and 24 h post-dose. Blood samples were placed into tubes containing EDTA-K2 anticoagulant and centrifuged at 3000 rpm for 15 min at 4° C. to separate plasma from the samples. After centrifugation, the resulting plasma was transferred to clean tubes for bioanalysis with LC/MS/MS. The pharmacokinetic parameters were calculated using non-compartmental analysis. The volume of distribution (VSS), half-life (T1/2) and clearance (CL) were obtained based on the plasma concentration-time curve after IV dose. The peak concentration (Cmax) was recorded directly from experimental observations after PO dose. The area under the plasma concentration-time curve (AUC0-last) was calculated using the linear trapezoidal rule up to the last detectable concentration. The bioavailability (F) was calculated based on the dose normalized AUC0-last after IV and PO dose.
The VSS of a drug represents the degree to which a drug is distributed in body tissue rather than the plasma. VSS is directly proportional with the amount of drug distributed into tissue. A higher VSS indicates a greater amount of tissue distribution.

The subject of data set [2] is Balb/c 3T3 mouse fibroblasts. Nature of the data set: 3T3 in vitro phototoxicity assay (Neutral Red uptake). The format is cell-based. The conditions noted are these: 3T3 fibroblasts. An excerpt:
Phototoxicity is defined as a toxic response that is elicited after the first exposure of the skin to certain chemicals and subsequent exposure to light, or that is induced similarly by skin irradiation after systemic administration of a chemical substance. The assay used in this study is designed to detect the phototoxic potential of a chemical by using a simple in vitro cytotoxicity assay with Balb/c 3T3 mouse fibroblasts. The principle of this test is a comparison of the cytotoxicity of a chemical when tested with and without exposure to a non-toxic dose of UVA-light. Cytotoxicity is expressed as a dose dependent reduction of the growth rate of cells as determined by uptake of the vital dye Neutral Red one day after treatment. […]
For this study the Neutral Red uptake (NRU) assay of Borenfreund and Puerner (Borenfreund, E, Puerner J A. Toxicity determined in vitro by morphological alterations and Neutral Red absorption. Toxicology Lett. 1985; 24:119-124) modified according to INVITTOX protocol No 78 (ERGATT/FRAME data bank of in vitro techniques in toxicology. INVITTOX PROTOCOL No 78. 3T3 NRU Phototoxicity Assay. March 1994) has been adapted to examine a possible phototoxic potential of the test item. […]
For each test item the microtiter plates were prepared according to Table 6. […] UV flux was measured with a UV-meter (Dr. Gröbel RM21). […]

SMILES strings stand for the structures. Converted amounts (≈) assume the structure as drawn. Where two headings read alike, the source gives them in different places.

Consider `Cc1cc(-c2ccc(N3CCC(N4CCNCC4)CC3)nc2C(F)F)cn2ccnc12` [Example 10, 6-[2-(difluoromethyl)-6-(4-piperazin-1-yl-1-piperidyl)-3-pyridyl]-8-methyl-imidazo[1,2-a]pyridine], for which the F in data set [1] (dose normalized AUC0-last after IV 2 mg/kg and PO 10 mg/kg) came to 69%. Moreover, the AUC(0-t) in data set [1] (rat, IV 2 mg/kg, plasma, read-out: IV AUC0-last) worked out at 1060 ng·h/mL; in data set [1] (rat, PO 10 mg/kg, plasma, read-out: PO AUC0-last) it was 3640 ng·h/mL. Also, the highest level in data set [1] (rat, PO 10 mg/kg, plasma) (Cmax) was 257 ng/mL. Further, in data set [1] (rat, plasma, IV 2 mg/kg), the clearance (as a rule, a measure of how efficiently the substance is removed, as volume per time) was determined as 28 mL/min/kg. For the same compound, the half-life (in general, the time in which the quantity being followed falls by half) in data set [1] (rat, plasma, IV 2 mg/kg) is 8.6 h. For the same compound, the Vd in data set [1] (rat, plasma, IV 2 mg/kg, read-out: Vss) stood at 15 L/kg.
Compound `CCc1nc(N2CCC(N3CC4(CNCCO4)C3)CC2)ccc1-c1cc(C)c2nccn2c1` [Example 14, 2-[1-[6-ethyl-5-(8-methylimidazo[1,2-a]pyridin-6-yl)-2-pyridyl]-4-piperidyl]-5-oxa-2,8-diazaspiro[3.5]nonane] registered a Phototoxicity factor in data set [2] (Factor=IC50(−UV)/IC50(+UV)) of 1. The concentration for half-maximal inhibition (IC50) (usually the point on the concentration scale where inhibition reaches its midpoint) in data set [2] (Mus musculus, BALB/c3T3, light or radiation study, approx. 5 J/cm^2 UVA light, Neutral Red uptake) came to 100 µg/mL (≈ 224 µM).

Source of the values: patent US20230279001A1, “IMIDAZO[1,2-A]PYRIDINE COMPOUNDS FOR THE TREATMENT OF AUTOIMMUNE DISEASE” (Hoffmann-La Roche Inc., priority 2020, published 2023).
